As usually defined, the pEC50 is the EC50 on a negative log10 scale, so that one unit is a factor of ten.

pEC50: −log10 of the molar value.

For the first experiment, the system named is HBV rcDNA in HepDE19 cells. Nature of the experiment: HepDE19 assay with bDNA quantitation of HBV rcDNA. In kind it is cell-based, hepatitis B virus (HBV). The settings on record: HepDE19 cells, inhibition of rcDNA formation, 7 day incubation, top concentration 25 μM; read-out: DE-19 bDNA EC50. The protocol:
HepDE19 Assay with bDNA Quantitation of HBV rcDNA:
HepDE19 cell culture system is a HepG2 (human hepatocarcinoma) derived cell line that supports HBV DNA replication and cccDNA formation in a tetracycline (Tet)-regulated manner and produces HBV rcDNA and a detectable reporter molecule dependent on the production and maintenance of cccDNA (Guo, et al., 2007, J. Virol. 81:12472-12484).
HepDE19 (50,000 cells/well) were plated in 96-well collagen-coated tissue-culture treated microtiter plates in DMEM/F12 medium supplemented with 10% fetal bovine serum, 1% penicillin-streptomycin and 1 μg/mL tetracycline and incubated in a humidified incubator at 37° C. and 5% CO2 overnight. Next day, the cells were switched to fresh medium without tetracycline and incubated for 4 hours at 37° C. and 5% CO2. The cells were treated with fresh Tet-free medium with compounds at concentrations starting at 25 μM and a serial, ½ log, 8-point, titration series in duplicate. The final DMSO concentration in the assay was 0.5%. The plates were incubated for 7 days in a humidified incubator at 37° C. and 5% CO2. Following a 7 day-incubation, the level of rcDNA present in the inhibitor-treated wells was measured using a Quantigene 2.0 bDNA assay kit (Affymetrix, Santa Clara, Calif.) with HBV specific custom probe set and manufacturers instructions. Concurrently, the effect of compounds on cell viability was assessed using replicate plates, plated at a density of 5,000 cells/well and incubated for 4 days, to determine the ATP content as a measure of cell viability using the cell-titer glo reagent (CTG; Promega Corporation, Madison, Wis.) as per manufacturer's instructions. The plates were read using a Victor luminescence plate reader (PerkinElmer Model 1420 Multilabel counter) and the relative luminescence units (RLU) data generated from each well was calculated as % inhibition of the untreated control wells and analyzed using XL-Fit module in Microsoft Excel to determine EC50 and EC90 (bDNA) and CC50 (CTG) values using a 4-parameter curve fitting algorithm.
Representative compounds of the invention were tested for their abilities to inhibit formation of relaxed circular DNA (rcDNA) in a HepDE19 assay, as described elsewhere herein.
Take `CN1C(=O)NC2(CCc3c(C(=O)Nc4ccc(F)c(Cl)c4)ccc(F)c32)C1=O` (single isomer, unassigned) [Compound 262, N-(3-chloro-4-fluoro-phenyl)-7′-fluoro-1-methyl-2,5-dioxo-spiro [imidazolidine-4,1′-indane]-4′-carboxamide]: the pEC50 is 4.85.

Take `O=C(NC1CSc2c(C(=O)Nc3ccc(F)c(F)c3)cccc21)OCc1ccccn1` (stereo not shown) [Compound 27, O-pyridin-2-ylmethyl, N-(7-((3,4-difluorophenyl)carbamoyl)-2,3-dihydrobenzo[b]thiophen-3-yl) carbamate]: the pEC50 is 5.85.

For the compound `O=C(NC1CSc2c(C(=O)Nc3ccc(F)c(Cl)c3)cccc21)OCc1ccccn1` (stereo not shown) [Compound 28, O-pyridin-2-ylmethyl, N-(7-((3-chloro-4-fluorophenyl)carbamoyl)-2,3-dihydrobenzo[b]thiophen-3-yl) carbamate], the pEC50 was 6.12.

For `COC(=O)NC1CSc2c(C(=O)Nc3ccc(F)c(Cl)c3)cccc21` (stereo not shown) [Compound 29, O-methyl, N-(7-((3-chloro-4-fluorophenyl)carbamoyl)-2,3-dihydrobenzo[b]thiophen-3-yl) carbamate], the pEC50 is 5.80.

The same experiment, now with this note: Hepatitis B virus, HepDE19, 168 h, HepDE19 cells, inhibition of rcDNA formation, 7 day incubation, top concentration 25 μM; read-out: DE-19 bDNA EC50.
Take `O=C(NC1CCc2c(C(=O)Nc3ccc(F)c(Cl)c3)cncc21)OCc1ccccn1` (single isomer, unassigned) [Compound 271, O-Pyridin-2-ylmethyl, N-(4-((3-chloro-4-fluorophenyl)carbamoyl)-6,7-dihydro-5H-cyclopenta[c]pyridin-7-yl)carbamate]: the pEC50 was 5.24.

Take `COC(=O)N[C@H]1CCc2c(C(=O)Nc3ccc(F)c(F)c3)cccc21` [Compound 1, O-methyl, N—(S)-(4-((3,4-difluorophenyl)carbamoyl)-2,3-dihydro-1H-inden-1-yl) carbamate]: the pEC50 is 6.19.

As to `CNC(=O)N[C@H]1CCc2c(C(=O)Nc3ccc(F)c(F)c3)cccc21` [Compound 2, (S)—N-(3,4-Difluorophenyl)-1-(3-methylureido)-2,3-dihydro-1H-indene-4-carboxamide], the negative logarithm of the EC50 (pEC50) is 5.85.

Turning to `O=C(N[C@H]1CCc2c(C(=O)Nc3ccc(F)c(F)c3)cccc21)OCc1ccccn1` [Compound 3, O-Pyridin-2-ylmethyl, N—(S)-(4-((3,4-difluorophenyl)carbamoyl)-2,3-dihydro-1H-inden-1-yl) carbamate], the pEC50 was 6.30.

As for `CC(C)(C)OC(=O)N[C@H]1CCc2c(C(=O)Nc3ccc(F)c(Cl)c3)ccc(F)c21` [Compound 10, O-tert-Butyl, N—(S)-(4-((3-chloro-4-fluorophenyl)carbamoyl)-7-fluoro-2,3-dihydro-1H-inden-1-yl) carbamate], the pEC50 was 6.10.

For the compound `N[C@H]1CCc2c(C(=O)Nc3ccc(F)c(Cl)c3)ccc(F)c21` [Compound 13, (S)-1-Amino-N-(3-chloro-4-fluorophenyl)-7-fluoro-2,3-dihydro-1H-indene-4-carboxamide], the pEC50 was under 4.60.

With `COC(=O)N[C@H]1CCc2c(C(=O)Nc3ccc(F)c(Cl)c3)ccc(F)c21` [Compound 19, O-Methyl, N—(S)-(4-((3-chloro-4-fluorophenyl)carbamoyl)-7-fluoro-2,3-dihydro-1H-inden-1-yl) carbamate], the pEC50 is 6.77.

With `Cc1cc(NC(=O)c2cccc3c2CC[C@@H]3NC(=O)OCc2ccccn2)ccc1F` [Compound 23, O-Pyridin-2-ylmethyl, N—(S)-(4-((4-fluoro-3-methylphenyl)carbamoyl)-2,3-dihydro-1H-inden-1-yl) carbamate], the pEC50 was 6.35.

Take `O=C(N[C@H]1CCc2c(C(=O)Nc3ccc(F)c(Cl)c3)ccc(F)c21)OCc1ccccn1` [Compound 32, O-Pyridin-2-ylmethyl, N—(S)-(4-((3-chloro-4-fluorophenyl)carbamoyl)-7-fluoro-2,3-dihydro-1H-inden-1-yl) carbamate]: the pEC50 was 6.96.

Still in this experiment, the particulars now being: Hepatitis B virus, HepDE19, 168 h, read-out: DE-19 bDNA EC50 (μM), HepDE19 cells, inhibition of rcDNA formation, 7 day incubation, top concentration 25 μM.
On to `O=C1CC[C@H](COC(=O)N[C@H]2CCc3c(C(=O)Nc4ccc(F)c(Cl)c4)ccc(F)c32)N1` [Compound 9, O—((R)-5-Oxopyrrolidin-2-yl)methyl, N—((S)-4-((3-chloro-4-fluorophenyl)carbamoyl)-7-fluoro-2,3-dihydro-1H-inden-1-yl) carbamate], for which the EC50 worked out at 0.58 µM.

For the compound `COC(=O)N[C@H]1CCc2c(C(=O)Nc3ccc(F)c(C)c3)ccc(F)c21` [Compound 11, O-Methyl, N—(S)-(7-fluoro-4-((4-fluoro-3-methylphenyl)carbamoyl)-2,3-dihydro-1H-inden-1-yl) carbamate], the EC50 amounted to 0.21 µM.

Take `CNC(=O)N[C@H]1CCc2c(C(=O)Nc3ccc(F)c(C)c3)ccc(F)c21` [Compound 12, (S)-7-Fluoro-N-(4-fluoro-3-methylphenyl)-1-(3-methylureido)-2,3-dihydro-1H-indene-4-carboxamide]: the EC50 stood at 0.38 µM.

For `O=C(N[C@H]1CCc2c(C(=O)Nc3ccc(F)c(Cl)c3)ccc(F)c21)OCCN1CCCC1=O` [Compound 14, O-2-(2-Oxopyrrolidin-1-yl)ethyl, N—(S)-(4-((3-chloro-4-fluorophenyl)carbamoyl)-7-fluoro-2,3-dihydro-1H-inden-1-yl) carbamate], the EC50 came to 0.45 µM.

`O=C(N[C@H]1CCc2c(C(=O)Nc3ccc(F)c(Cl)c3)cccc21)OCc1ccccn1` [Compound 17]: the EC50 stood at 0.17 µM.

Consider `O=C1CC[C@@H](COC(=O)N[C@H]2CCc3c(C(=O)Nc4ccc(F)c(Cl)c4)ccc(F)c32)N1` [Compound 18, O—((S)-5-Oxopyrrolidin-2-yl)methyl, N—((S)-4-((3-chloro-4-fluorophenyl)carbamoyl)-7-fluoro-2,3-dihydro-1H-inden-1-yl) carbamate], for which the EC50 is 0.34 µM.

In the case of `CNC(=O)N[C@H]1CCc2c(C(=O)Nc3ccc(F)c(Cl)c3)ccc(F)c21` [Compound 20, (S)—N-(3-Chloro-4-fluorophenyl)-7-fluoro-1-(3-methylureido)-2,3-dihydro-1H-indene-4-carboxamide], the EC50 is 0.32 µM.

For `O=C1CC[C@H](COC(=O)N[C@H]2CCc3c(C(=O)Nc4ccc(F)c(Cl)c4)cccc32)N1` [Compound 21, O—((R)-5-Oxopyrrolidin-2-yl)methyl, N—((S)-4-((3-chloro-4-fluorophenyl)carbamoyl)-2,3-dihydro-1H-inden-1-yl) carbamate], the EC50 was 0.58 µM.

In the case of `O=C1CC[C@@H](COC(=O)N[C@H]2CCc3c(C(=O)Nc4ccc(F)c(Cl)c4)cccc32)N1` [Compound 22, O—((S)-5-Oxopyrrolidin-2-yl)methyl, N—((S)-4-((3-chloro-4-fluorophenyl)carbamoyl)-2,3-dihydro-1H-inden-1-yl) carbamate], the EC50 was 0.44 µM.

Turning to `Cc1cc(NC(=O)c2cccc3c2CC[C@@H]3NC(=O)OC[C@H]2CCC(=O)N2)ccc1F` [Compound 24, O—((R)-5-Oxopyrrolidin-2-yl)methyl, N—((S)-4-((4-fluoro-3-methylphenyl)carbamoyl)-2,3-dihydro-1H-inden-1-yl) carbamate], the EC50 was 1.5 µM.

`Cc1cc(NC(=O)c2cccc3c2CC[C@@H]3NC(=O)OC[C@@H]2CCC(=O)N2)ccc1F` [Compound 25, O—((S)-5-Oxopyrrolidin-2-yl)methyl, N—((S)-4-((4-fluoro-3-methylphenyl)carbamoyl)-2,3-dihydro-1H-inden-1-yl) carbamate]: the EC50 was 1.1 µM.

`O=C(N[C@H]1CCc2c(C(=O)Nc3ccc(F)c(Cl)c3)ccc(F)c21)OCC(=O)N1CCCC1` [Compound 26, O-2-Oxo-2-(pyrrolidin-1-yl)ethyl, N—(S)-(4-((3-chloro-4-fluorophenyl)carbamoyl)-7-fluoro-2,3-dihydro-1H-inden-1-yl) carbamate]: the EC50 came to 0.44 µM.

Staying with this experiment, now noted: read-out: DE-19 bDNA EC50; HepDE19 cells, inhibition of rcDNA formation, 7 day incubation, top concentration 25 μM.
For `COC(=O)NC1COc2c(C(=O)Nc3ccc(F)c(F)c3)cccc21` (stereo not shown) [Compound 4, O-Methyl, N-(7-((3,4-difluorophenyl)carbamoyl)-2,3-dihydrobenzofuran-3-yl) carbamate], the pEC50 was 5.28.

For the compound `COC(=O)NC1COc2c(C(=O)Nc3ccc(F)c(F)c3)cccc21` (stereo not shown) [Compound 5, O-Methyl, N-(7-((3,4-difluorophenyl)carbamoyl)-2,3-dihydrobenzofuran-3-yl) carbamate], the pEC50 is 4.85.

For the compound `COC(=O)NC1COc2c(C(=O)Nc3ccc(F)c(F)c3)cccc21` (stereo not shown) [Compound 6, O-Methyl, N-(7-((3,4-difluorophenyl)carbamoyl)-2,3-dihydrobenzofuran-3-yl) carbamate], the pEC50 was 5.89.

Source of the values: patent US11098010B2 (priority 2017, dated 2021).
